Laboratory results from patent US11583570B2, “Use of autoinducer-related pathway in inducing apoptosis and anti-infective therapy” (TSINGHUA UNIVERSITY, priority 2017, dated 2023).

Assays:
monocytic RAW264.7 = test: Annexin V/PI apoptosis detection, RAW264.7; type: cell-based
Description: (§1) Cell apoptosis was detected with Annexin V/PI apoptosis detection Kit. Briefly, cells were stimulated with HSLs or left untreated. 6 hrs later, cells were collected and stained with Annexin VFITC and PI for 15 min at RT, then the apoptotic effect was measured by flow cytometry. OT-I or OT-II splenocytes were pulsed with specific peptides or PMA and ionomycin mixture with or without HSLs or TNF α plus cycloheximide. 24 hrs later, cells and supernatants were collected separately. For OT-I activation, cells were stained with CD69 and CD8. For OT-II activation, cells were stained with CD69 and CD4. Cell activation was measured by flow cytometry. All supernatants were detected for IL-2 secretion by ELISA.

[1] = test system: FADD in complex with caspase 8; test: FADD / caspase 8 co-immunoprecipitation; type: cell-based; details: following 3OC12 HSL treatment
Description: For FADD immunoprecipitation, 4 μg anti-mouse FADD pAb (Santa Cruz, H-181) were incubated with 100 μl protein A/G agarose for 2 hrs at RT. 3 million/ml purified CD4 T cells were stimulated with HSLs or left untreated. The cells were then collected and lysed with IP lysis buffer (50 mM HEPES pH 7.4, 150 mM NaCl, 1% NP-40, 1 mM EDTA, 1 mM PMSF, 1 mM NaF, 1 mM NaVO3 and protease inhibitor cocktails). The cell lysates were added into antibody-bead mixtures for 3 hrs at 4° C. Beads were then collected by low speed centrifugation (1000 g, 5 min) and washed 4 times with IP lysis buffer (300 mM NaCl added). After the last wash, pellets were suspended with 70 ul 2×SDS loading buffer and boiled for 5 min. For caspase 8 immunoprecipitation, 4 μg anti-Caspase 8 pAb (Santa Cruz, C-20) was incubated with 100 μl protein A/G agarose for 1 hr at RT. 3 million/ml H9 cells were treated with HSLs or left untreated. The samples were processed as in FADD IP. For cross-linking assay, CD4+ T cells isolated from C57BL/6 mice spleen or human THP-1 cells was stimulated with HSLs or left untreated, then cells were collected and cross-linked by 10 mM DTSSP at RT for 30 min and quenched with 1M Tris-HCl (pH7.5) for 15 min. […]

Iκbα = Iκbα degradation in non-apoptotic Jurkat cells; type: cell-based
[2] = test system: primary T cell and T cell line; test: T cell activation (IL-2 release, CD69 expression); type: cell-based, mouse; details: induced by MHC class I and class II-restricted antigens or PMA plus ionophore
Description: as §1

SMILES: CCCCCCCCCC(=O)CC(=O)N[C@H]1CCOC1=O [3OC12 HSL, N-(3-oxo-dodecanoyl) homoserine lactone]
- sensitivity to 3OC12 HSL (monocytic RAW264.7): sensitive
- FADD association with caspase 8 [1]: in complex with caspase 8
- Iκbα degradation (Iκbα): degraded
- T cell activation measured by IL-2 release and CD69 expression [2]: suppress
